The results in this text go back to patent US11872209B2, “Treatment for primary biliary cholangitis” (Zydus Lifesciences Limited, priority 2016, dated 2024).

“Also recorded” adds a separate entry of the source. Counter-ions that a name gives are not always drawn.

In this assay the test system is carbon tetrachloride-induced liver fibrosis. As to the kind of experiment: Carbon tetrachloride-induced liver fibrosis in male Sprague Dawley rats. To be noted: 0.4 and 4 mg/kg/day orally for 4 weeks with continued CCl4 injections. Format: in vivo. As to the method: To assess the effect of Compound of formula (Ia) on the progression of established hepatic fibrosis, fibrosis was induced in rats by twice weekly carbon tetrachloride (CCl4) injections for 2 weeks via an intraperitoneal route. Compound (Ia) (0.4 and 4 mg/kg/day), pioglitazone (10 mg/kg/day), fenofibrate (100 mg/kg/day) or vehicle (Tween 80 and 0.5% sodium salt of carboxymethylcellulose at ratio of 0.5:99.5) was then orally administered for 4 weeks to animals concomitantly with continued CCl4 injections. After 4 weeks of treatment, blood samples were collected 1 h post-dose, for estimation of non-fasted serum ALT and other serum parameters. All the animals were sacrificed; liver was quickly removed, weighed and fixed in 10% formalin for histological analysis or snap frozen in liquid nitrogen for other assays. Light microscopic examination of liver tissue was performed using standard hematoxylin and eosin (H&E) staining. Hepatic fibrosis was accessed by Masson's trichrome staining method.

Take `CCO[C@@H](Cc1ccc(OCCn2c(C)ccc2-c2ccc(SC)cc2)cc1)C(=O)O` [Compound (Ia), saroglitazar magnesium salt]: the “Effect on CCl4-induced liver fibrosis” value (after 2 weeks of CCl4, listed as Compound of formula (Ia)) was “protected the animals from further deterioration and exhibited a dose-dependent reversal of CCl4-induced liver fibrosis; also recorded: protected the animals from further deterioration and showed dose dependent reversal of CCl4-induced liver fibrosis”. For the same molecule, under “FIG. 1”, the “Microscopic quantification of fibrosis (H&E and Masson's trichrome staining of liver tissues)” value was “stopped the progression of established liver fibrosis and accelerated liver recovery”.
